Measured values from ChEMBL document CHEMBL1201862, “PubChem BioAssay data set” (2004).
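The compound was tested at five concentrations on cells cultured in 96-well plates, with a 48-hour exposure period. Abbreviation: GI50, concentration required for 50% inhibition of growth.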 Calls of active or inactive are those of the source. Cut-off read from the data, not from the text of the source: active = GI50 up to about 1.1 µM and inactive = higher.

How the values were obtained:
Test in all cases: NCI tumour cell line growth inhibition, 48 h
[1] = tested on: A498
[2] = tested on: CAKI-1
[3] = tested on: HCT-15
[4] = tested on: HOP-92
[5] = tested on: HT-29
[6] = tested on: Hs-578T
[7] = tested on: M14
[8] = tested on: MCF7
[9] = tested on: MDA-N
[10] = tested on: RPMI-8226
[11] = tested on: SF-268
[12] = tested on: SF-539
[13] = tested on: SK-MEL-28
[14] = tested on: SK-MEL-2
[15] = tested on: SK-MEL-5
[16] = tested on: SN12C
[17] = tested on: TK-10
[18] = tested on: UACC-257
[19] = tested on: UACC-62
[20] = tested on: UO-31

| Compound | GI50 [1] | GI50 [2] | GI50 [3] | GI50 [4] | GI50 [5] | GI50 [6] | GI50 [7] | GI50 [8] | GI50 [9] | GI50 [10] | GI50 [11] | GI50 [12] | GI50 [13] | GI50 [14] | GI50 [15] | GI50 [16] | GI50 [17] | GI50 [18] | GI50 [19] | GI50 [20] |
| --- | --- | --- | --- | --- | --- | --- | --- | --- | --- | --- | --- | --- | --- | --- | --- | --- | --- | --- | --- | --- |
| O=C(O)c1cc(CCc2cc(O)ccc2O)ccc1O | > 100 µM (inactive) | > 100 µM (inactive) | > 100 µM | > 100 µM (inactive) | > 100 µM (inactive) | > 100 µM (inactive) | > 100 µM (inactive) | > 100 µM (inactive) | 14 µM (inactive) | > 100 µM (inactive) | > 100 µM (inactive) | > 100 µM (inactive) | > 100 µM (inactive) | > 100 µM (inactive) | > 100 µM (inactive) | > 100 µM (inactive) | > 100 µM (inactive) | > 100 µM (inactive) | > 100 µM (inactive) | > 100 µM (inactive) |
| Oc1ccc(Cl)cc1C1=NC(NCN2CCN(CNC3=NC(c4ccccc4)CC(c4cc(Cl)ccc4O)=N3)CC2)=NC(c2ccccc2)C1 (stereo not given) | 47.8 µM (inactive) | 29.5 µM (inactive) | 24.4 µM | 58.2 µM (inactive) | 36.5 µM (inactive) | 55.7 µM (inactive) | 58.6 µM (inactive) | 9.08 µM (inactive) | 50.2 µM (inactive) | 18.4 µM (inactive) | 32.7 µM (inactive) | 72.1 µM (inactive) | > 100 µM (inactive) | 43 µM (inactive) | 93.5 µM (inactive) | 24.7 µM (inactive) | 48.8 µM (inactive) | > 100 µM (inactive) | 45 µM (inactive) | 37.3 µM (inactive) |
| CN(O)C(=O)c1cccc(Cl)c1 | > 100 µM (inactive) | > 100 µM (inactive) | 56.1 µM | > 100 µM (inactive) | 70.6 µM (inactive) | > 100 µM (inactive) | > 100 µM (inactive) | > 100 µM (inactive) | > 100 µM (inactive) | > 100 µM (inactive) | > 100 µM (inactive) | > 100 µM (inactive) | > 100 µM (inactive) | > 100 µM (inactive) | > 100 µM (inactive) | > 100 µM (inactive) | > 100 µM (inactive) | > 100 µM (inactive) | > 100 µM (inactive) | > 100 µM (inactive) |
| Cc1ccc(S(=O)(=O)c2ccsc2NC(=O)C(F)(F)F)cc1 | 53 µM (inactive) | 34.9 µM (inactive) | 34.9 µM | 30.9 µM (inactive) | 35.8 µM (inactive) | 32.7 µM (inactive) | 43.4 µM (inactive) | 44.8 µM (inactive) | 23.6 µM (inactive) | 8.02 µM (inactive) | 28.3 µM (inactive) | 39.7 µM (inactive) | 93.5 µM (inactive) | 26.3 µM (inactive) | 20.2 µM (inactive) | 25.2 µM (inactive) | 61.1 µM (inactive) | 30.3 µM (inactive) | 35.7 µM (inactive) | 28.9 µM (inactive) |
| CCOC(=O)C1C(C(C)C)C2(C#N)C(=N)OC1(C)C2(C#N)C#N (stereo not given) | > 100 µM (inactive) | 2.72 µM (inactive) | 49.3 µM | 21.2 µM (inactive) | 82 µM (inactive) | > 100 µM (inactive) | > 100 µM (inactive) | 59.4 µM (inactive) | 16.2 µM (inactive) | 32.8 µM (inactive) | > 100 µM (inactive) | > 100 µM (inactive) | > 100 µM (inactive) | 58.9 µM (inactive) | 30.5 µM (inactive) | 65.8 µM (inactive) | > 100 µM (inactive) | 54.8 µM (inactive) | 88.9 µM (inactive) | > 100 µM (inactive) |
| CC(=C/C=C/C=C(C)\C=C\C=C(\C)C(=O)O)/C=C/C=C(/C)C(=O)O | > 100 µM (inactive) | > 100 µM (inactive) | > 100 µM | > 100 µM (inactive) | > 100 µM (inactive) | > 100 µM (inactive) | > 100 µM (inactive) | > 100 µM (inactive) | > 100 µM (inactive) | > 100 µM (inactive) | > 100 µM (inactive) | > 100 µM (inactive) | > 100 µM (inactive) | > 100 µM (inactive) | > 100 µM (inactive) | > 100 µM (inactive) | > 100 µM (inactive) | > 100 µM (inactive) | > 100 µM (inactive) | > 100 µM (inactive) |
| CCN1CCc2sc3nc(S)n(C)c(=O)c3c2C1 | > 100 µM (inactive) | > 100 µM (inactive) | > 100 µM | > 100 µM (inactive) | > 100 µM (inactive) | > 100 µM (inactive) | > 100 µM (inactive) | > 100 µM (inactive) | > 100 µM (inactive) | > 100 µM (inactive) | > 100 µM (inactive) | > 100 µM (inactive) | > 100 µM (inactive) | > 100 µM (inactive) | > 100 µM (inactive) | > 100 µM (inactive) | > 100 µM (inactive) | > 100 µM (inactive) | > 100 µM (inactive) | > 100 µM (inactive) |
| NCCNC(=O)CN(CC(=O)O)C1CCCCC1N(CC(=O)O)CC(=O)O (stereo not given) | > 100 µM (inactive) | > 100 µM (inactive) | > 100 µM | 11.7 µM (inactive) | > 100 µM (inactive) | 56 µM (inactive) | > 100 µM (inactive) | > 100 µM (inactive) | > 100 µM (inactive) | > 10 µM (inactive) | 24.4 µM (inactive) | > 100 µM (inactive) | > 100 µM (inactive) | > 100 µM (inactive) | > 100 µM (inactive) | > 100 µM (inactive) | > 100 µM (inactive) | > 100 µM (inactive) | > 100 µM (inactive) | > 100 µM (inactive) |
| O=C(CCc1ccccc1)ON1C(=S)NC(c2ccccc2)(c2ccccc2)C1=S | > 100 µM (inactive) | 33.7 µM (inactive) | 28.4 µM | 65 µM (inactive) | 25.4 µM (inactive) | 31.1 µM (inactive) | 42.1 µM (inactive) | 32.9 µM (inactive) | 38.1 µM (inactive) | 29.1 µM (inactive) | 28.2 µM (inactive) | 26.4 µM (inactive) | > 100 µM (inactive) | 20.2 µM (inactive) | 19.5 µM (inactive) | 44.8 µM (inactive) | 54.5 µM (inactive) | 36.5 µM (inactive) | 33.9 µM (inactive) | 43.4 µM (inactive) |
| CCOC(=O)C12CCC(c3c(C)cccc3C)(O1)C(C(=O)OC)=C2C(=O)OC (stereo not given) | 2.14 µM (inactive) | > 5.6 µM (inactive) | 4.69 µM | 4.24 µM (inactive) | 0.748 µM (active) | 3.52 µM (inactive) | 2.69 µM (inactive) | 1.3 µM (inactive) | 0.484 µM (active) | 3.92 µM (inactive) | > 6.89 µM (inactive) | 2.11 µM (inactive) | > 7.5 µM (inactive) | > 8.99 µM (inactive) | 0.668 µM (active) | > 6.75 µM (inactive) | > 10 µM (inactive) | 2.58 µM (inactive) | 4.73 µM (inactive) | > 10 µM (inactive) |
| O=C1CS[C@@](CC(c2ccc(Cl)cc2)c2ccc(Cl)cc2)(c2ccc(Cl)cc2)N1 | 11.6 µM (inactive) | 19.2 µM (inactive) | 10.8 µM | 15.3 µM (inactive) | 9.55 µM (inactive) | 38.2 µM (inactive) | 11.8 µM (inactive) | 4.18 µM (inactive) | 8.13 µM (inactive) | 5.05 µM (inactive) | 17.5 µM (inactive) | 22.8 µM (inactive) | 43 µM (inactive) | 19.3 µM (inactive) | 12.6 µM (inactive) | 2.16 µM (inactive) | 51.3 µM (inactive) | 14.3 µM (inactive) | 12.5 µM (inactive) | 25.1 µM (inactive) |
| CCC(C)C1(O)OC2CC3(C)OC(=CC3=O)/C(C)=C\C3OC(=O)C1(C)C32 (stereo not given) | 25.2 µM (inactive) | 14.4 µM (inactive) | 3.3 µM | 8.75 µM (inactive) | 14.2 µM (inactive) | 30.5 µM (inactive) | 21.1 µM (inactive) | 9.77 µM (inactive) | 1.73 µM (inactive) | 7.1 µM (inactive) | 13.9 µM (inactive) | 22.3 µM (inactive) | 14.3 µM (inactive) | 21.3 µM (inactive) | 10.5 µM (inactive) | 11.8 µM (inactive) | 21 µM (inactive) | 7.01 µM (inactive) | 14.3 µM (inactive) | 17.8 µM (inactive) |
| O=C1N(CN2CCOCC2)CN(CN2CCOCC2)C(=O)N1Cc1ccc(CN2C(=O)N(CN3CCOCC3)CN(CN3CCOCC3)C2=O)cc1 | > 100 µM (inactive) | 38.3 µM (inactive) | 31.2 µM | 52 µM (inactive) | 42 µM (inactive) | 22 µM (inactive) | 28.2 µM (inactive) | 38.9 µM (inactive) | 31.7 µM (inactive) | 22.7 µM (inactive) | 28.4 µM (inactive) | 44.8 µM (inactive) | 31.3 µM (inactive) | 20.6 µM (inactive) | > 100 µM (inactive) | 59.8 µM (inactive) | > 100 µM (inactive) | 52.2 µM (inactive) | 31.2 µM (inactive) | 44.4 µM (inactive) |
| Nc1nc(Cl)cc(Nc2ccc3c(c2)CCC3)n1 | > 100 µM (inactive) | 30.1 µM (inactive) | 35.9 µM | > 100 µM (inactive) | 26.1 µM (inactive) | > 100 µM (inactive) | > 100 µM (inactive) | > 100 µM (inactive) | > 100 µM (inactive) | 19.7 µM (inactive) | > 100 µM (inactive) | > 100 µM (inactive) | > 100 µM (inactive) | > 100 µM (inactive) | 91.4 µM (inactive) | 80.2 µM (inactive) | 65 µM (inactive) | > 100 µM (inactive) | > 100 µM (inactive) | > 100 µM (inactive) |
